Test results from patent publication US20250127180A1, “PARTICLES COMPRISING DOUBLE STRANDED RNA AND USE OF SAME IN AGRICULTURE” (priority 2022, published 2025).

Tested on: B. cinerea
Assay: In-vitro fungal growth, O.D at 600 nm
Assay type: cell-based, Botrytis cinerea
Method: To test the effect of commonly used fungicide on B. cinerea growth, ‘Procloraz’ (Sportak, Bayer Cropscience LLC, Monheim am Rhein, Germany) or ‘fludioxonil’ (scholar, Hod-Hasharon, Israel) fungicide were diluted in 1% SMB to final concentrations of 1-1000 ppb or 0.01-1,000 ppb, respectively.
The plates were incubated at room temperature and O.D measurement at 600 nm was taken every hour for 48-72 hours using Synergy LX plate reader (BioTek, Winooski, Vermont, United States). The absorbance of three wells of repeats was averaged together and was background-corrected by subtracting the average absorbance of media alone at time zero (Galsurker et al., 2020; Langvad, 1999). Growth inhibition percentage was calculated (O.D in control well−O.D in treatment well)/O.D in control well×100) (Meletiadis et al., 2003). Coefficient treatment interaction (CTI) was calculated as follows: CTI=AB/(A×B). AB is the ratio of the treatment combination to control; A, or B is the ratio of the single treatment to control. Coefficient treatment interaction is considered as synergistic when CTI<1 (Chen et al., 2014).

N#Cc1c[nH]cc1-c1cccc2c1OC(F)(F)O2 [Fludioxonil]
B. cinerea growth (0.01-1,000 ppb, data not shown): reduced B. cinerea growth in a non-linear manner

CCCN(CCOc1c(Cl)cc(Cl)cc1Cl)C(=O)n1ccnc1 [Prochloraz, prochloraz]
fungal growth (O.D) (1-1,000 ppb in growth media): dose-dependent reduction of fungal growth

CC(C)[C@@H](C)/C=C/[C@@H](C)[C@H]1CC[C@H]2C3=CC=C4C[C@@H](O)CC[C@]4(C)[C@H]3CC[C@]12C [ergosterol]
fungal growth (ergosterol added to control): did not alter fungal growth
